What was measured:
in vitro = conditions: PAMPA
Acetylcholinesterase [1] = target: Acetylcholinesterase (Electrophorus electricus, UniProt O42275); test: Inhibition of electric eel AChE using acetylthiocholine iodide as substrate incubated for 15 mins by Ellman's method
[2] = Lipophilicity, log P of the compound; type: physicochemical; conditions: octanol/water
Acetylcholinesterase [3] = target: Acetylcholinesterase (Homo sapiens, UniProt P22303)
Description: Inhibition of AChE (unknown origin)

physchem = conditions: octanol/water
Description: Lipophilicity, log D of compound

Acetylcholinesterase (Electrophorus electricus, UniProt O42275), sequence (O42275 whole entry): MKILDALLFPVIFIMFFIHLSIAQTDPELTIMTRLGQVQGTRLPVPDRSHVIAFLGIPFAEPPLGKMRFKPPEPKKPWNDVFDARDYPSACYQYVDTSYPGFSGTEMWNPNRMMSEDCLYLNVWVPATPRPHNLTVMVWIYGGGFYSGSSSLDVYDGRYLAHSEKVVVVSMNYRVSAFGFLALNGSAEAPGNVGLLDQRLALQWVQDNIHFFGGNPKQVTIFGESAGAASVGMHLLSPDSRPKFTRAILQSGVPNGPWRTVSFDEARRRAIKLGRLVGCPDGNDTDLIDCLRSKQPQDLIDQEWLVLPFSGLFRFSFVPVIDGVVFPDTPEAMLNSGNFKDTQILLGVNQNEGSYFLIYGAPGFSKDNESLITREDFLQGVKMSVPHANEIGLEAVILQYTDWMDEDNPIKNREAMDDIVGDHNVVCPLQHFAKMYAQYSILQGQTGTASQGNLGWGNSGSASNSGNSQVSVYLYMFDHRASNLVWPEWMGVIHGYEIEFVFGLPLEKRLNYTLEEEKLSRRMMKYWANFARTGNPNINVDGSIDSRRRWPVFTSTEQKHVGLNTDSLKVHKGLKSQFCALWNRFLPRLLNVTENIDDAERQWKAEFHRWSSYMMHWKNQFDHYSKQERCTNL
Acetylcholinesterase (Homo sapiens, UniProt P22303), sequence (P22303 whole entry): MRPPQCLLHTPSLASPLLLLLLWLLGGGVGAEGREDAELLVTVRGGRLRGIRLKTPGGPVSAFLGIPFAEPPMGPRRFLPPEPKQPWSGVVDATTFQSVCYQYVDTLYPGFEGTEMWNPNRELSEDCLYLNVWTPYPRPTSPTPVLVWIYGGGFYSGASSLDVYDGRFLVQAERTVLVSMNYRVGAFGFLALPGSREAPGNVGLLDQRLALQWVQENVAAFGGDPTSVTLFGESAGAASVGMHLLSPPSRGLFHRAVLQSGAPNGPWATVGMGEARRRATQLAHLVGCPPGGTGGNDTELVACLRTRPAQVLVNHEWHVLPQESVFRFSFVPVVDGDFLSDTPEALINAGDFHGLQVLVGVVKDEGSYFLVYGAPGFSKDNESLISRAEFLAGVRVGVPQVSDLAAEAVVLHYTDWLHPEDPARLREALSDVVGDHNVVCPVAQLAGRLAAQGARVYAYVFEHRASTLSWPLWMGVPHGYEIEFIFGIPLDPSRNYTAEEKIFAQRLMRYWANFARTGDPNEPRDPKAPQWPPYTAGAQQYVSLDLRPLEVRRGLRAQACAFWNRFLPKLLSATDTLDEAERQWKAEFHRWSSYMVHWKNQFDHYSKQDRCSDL

| SMILES | Papp at 8 h (in vitro) [×10⁻⁶ cm/s] | IC50 (Acetylcholinesterase [1]) [µM] | other results |
| --- | --- | --- | --- |
| NCc1cccc(CN2CCC(CCN3C(=O)c4ccccc4C3=O)CC2)c1 | 1.4 | 0.299 | – |
| Nc1cccc(CN2CCC(CCN3C(=O)c4ccccc4C3=O)CC2)c1 | 2.9 | 0.15 | – |
| COc1cc2c(cc1OC)C(=O)C(CC1CCN(CCN)CC1)C2 (centres undefined) | – | 11.2 | – |
| COc1cc2c(cc1OC)C(=O)C(CC1CCN(C(=O)c3ccccc3)CC1)C2 (centres undefined) | – | 17.9 | – |
| COc1cc2c(cc1OC)C(=O)C(CC1CCN(Cc3ccc(CN)cc3)CC1)C2 (centres undefined) | – | 5.8 | – |
| O=C(c1ccccc1)N1CCC(CCN2C(=O)c3ccccc3C2=O)CC1 | – | 63 | – |
| COc1cc2c(cc1OC)C(=O)C(CC1CCN(CCCCN)CC1)C2 (centres undefined) | – | 14.6 | – |
| COc1cc2c(cc1OC)C(=O)C(CC1CCNCC1)C2 (centres undefined) | – | 9.45 | – |
| NCc1ccc(CN2CCC(CCN3C(=O)c4ccccc4C3=O)CC2)cc1 | – | 1.54 | – |
| Nc1ccc(CN2CCC(CN3C(=O)c4ccccc4C3=O)CC2)cc1 | – | 25.2 | – |
| COc1cc(O)c(C(=O)Nc2nc(C(=O)NCCN(C(C)C)C(C)C)cs2)cc1OC [ACOTIAMIDE] | – | – | logP [2]: < 2; IC50 (Acetylcholinesterase [3]): 3 µM; logD (physchem): 0.7 |
| COc1cc2c(cc1OC)C(=O)C(CC1CCN(Cc3cccc(CN)c3)CC1)C2 (centres undefined) | 1.5 | 1.03 | – |
| Nc1ccc(CN2CCC(CCN3C(=O)c4ccccc4C3=O)CC2)cc1 | – | 0.327 | – |
| COc1cc2c(cc1OC)C(=O)C(CC1CCN(Cc3cccc(N)c3)CC1)C2 (centres undefined) | 3.7 | 0.0473 | – |
| COc1cc2c(cc1OC)C(=O)C(CC1CCN(Cc3cccc(NC(=O)c4ccccc4)c3)CC1)C2 (centres undefined) | – | 22.8 | – |
| O=C1c2ccccc2C(=O)N1CC1CCN(Cc2ccccc2)CC1 | 10.7 | 22.8 | – |
| NCCc1ccc(O)c(O)c1 [DOPAMINE] | 3.3 | – | – |
| O=C1c2ccccc2C(=O)N1CCC1CCN(Cc2ccccc2)CC1 | – | 0.0132 | – |
| COc1cc2c(cc1OC)C(=O)C(CC1CCN(CCCN)CC1)C2 (centres undefined) | – | 10.8 | – |
| COc1cc2c(cc1OC)C(=O)C(CC1CCN(Cc3ccc(C(=O)O)cc3)CC1)C2 (centres undefined) | – | 72.2 | – |
| Clc1cccc(Cl)c1N=C1NCCN1 [CLONIDINE] | 12.2 | – | – |
| COc1cc2c(cc1OC)C(=O)C(CC1CCN(Cc3ccc(N)cc3)CC1)C2 (centres undefined) | – | 0.0991 | – |

— ChEMBL document CHEMBL5537214 (RSC Med Chem, 2024)
